These results are taken from patent US8937077B2, “Bicyclic diamines as janus kinase inhibitors” (Merck Sharp & Dohme Corp., priority 2010, dated 2015).

pIC50: −log10 of the molar value.

T1 sequence (P23458 875-1153 limits assumed): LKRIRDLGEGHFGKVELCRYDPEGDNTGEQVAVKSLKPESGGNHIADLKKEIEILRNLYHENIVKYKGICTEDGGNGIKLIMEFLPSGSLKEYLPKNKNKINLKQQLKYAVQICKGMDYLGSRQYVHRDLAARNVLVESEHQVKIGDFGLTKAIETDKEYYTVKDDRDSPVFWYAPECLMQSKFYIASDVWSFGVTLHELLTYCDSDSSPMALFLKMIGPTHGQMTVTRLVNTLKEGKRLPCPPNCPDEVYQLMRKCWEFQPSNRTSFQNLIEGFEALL

The first experiment has as its target T1, Jak1 (Homo sapiens, UniProt P23458).
T1 construct: using a recombinant purified GST-tagged catalytic domain for each enzyme; GST; purchased Invitrogen M4290
Briefly: Jak Biochemical HTRF Assay (Jak1). Conditions: IC50 class, recombinant GST-tagged catalytic domain, read-out: Jak1 activity. The text has this:
Compounds of formula I can be prepared according to the general procedures described in the Schemes and Examples herein, using appropriate materials. Representative compounds of the present invention are exemplified herein below. The compounds exemplified are not, however, to be construed as limiting the scope of the invention in any manner. The examples further illustrate details for the preparation of the compounds of the present invention. Those skilled in the art will readily understand that known variations of protecting groups, of reagents, as well as of the conditions and processes of the following preparative procedures, can be used to prepare these compounds. It is also understood that whenever a chemical reagent is not commercially available, such a chemical reagent can be readily prepared by those skilled in the art by either following or adapting known methods described in the literature or described herein. Chiral analogs were prepared via incorporation of chiral reagents or obtained after chiral chromatography separation of a racemically generated analog. All temperatures are degrees Celsius unless otherwise noted. Mass spectra (MS) were measured either by electrospray ion-mass spectroscopy (ESMS) or by atmospheric pressure chemical ionization mass spectroscopy (APCI). Jak1 data were obtained using the in vitro assay described below.
Jak Biochemical HTRF Assay Protocol
The ability of compounds to inhibit the activity of Jak1, Jak2, Jak3, and Tyk2 was measured using a recombinant purified GST-tagged catalytic domain for each enzyme (Invitrogen Jak1 #M4290, […]) in an HTRF format biochemical assay. The reactions employed a common peptide substrate, LCB-EQEDEPEGDYFEWLW-NH2 (in-house). The basic assay protocol is as follows: First, […] of diluted compounds in DMSO were dispensed into the wells of a dry 384-well Black plate (Greiner #781076) using a Labcyte Echo 555 acoustic dispenser. Subsequent reagent additions employed an Agilent Bravo. Next, 18 μL, of 1.11X enzyme and 1.11X substrate in 1X assay buffer (Invitrogen kinase buffer #PV3189, 2 mM DTT, 0.05% BSA) were added to the wells and shaken and then preincubated for 30 minutes at room temperature to allow compound binding to equilibrate. After equilibration, 2 μL of 10X ATP in 1X assay buffer was added to initiate the kinase reaction and the plates were shaken and then incubated at room temperature for 120 minutes. At the end of the incubation, 20 μL of 2X stop buffer (streptavidin-Dylight (Thermo #21845), Eu-tagged pY20 antibody (Perkin Elmer #AD0067), EDTA, HEPES, and Triton) was added to quench the reaction. Plates were shaken and centrifuged and then incubated 60 minutes at room temperature and then read on a Perkin Elmer Envision (λex=337 nm, λem=665 and 615 nm, TRF delay time=20 μs). HTRF signal=10,000*665 nm reading/615 nm reading. After normalization to untreated controls, the percent inhibition of the HTRF signal at each compound concentration was calculated. The plot of percent inhibition versus the log of compound concentration was fit with a 4-parameter dose response equation to calculate IC50 values.
For `O=C(Cn1cc2ccccc2n1)N1CCC[C@@H]2[C@H]1CCN2c1ncnc2[nH]ccc12` [Example 29-54, 4-[(3aR,7aR)-4-(2H-indazol-2-ylacetyl)octahydro-1H-pyrrolo[3,2-b]pyridin-1-yl]-7H-pyrrolo[2,3-d]pyrimidine], the pIC50 was 6.00 to 7.00.
Same read-out and setting: the result for `CC1CCN(C(=O)CC#N)C2CCN(c3ncnc4[nH]ccc34)C12` [Example 22, (3aS,7S,7aS and 3aR,7R,7aR) 3-[7-methyl-1-(7H-pyrrolo[2,3-d]pyrimidin-4-yl)octahydro-4H-pyrrolo[3,2-b]pyridin-4-yl]-3-oxopropanenitrile] reads 6.00 to 7.00; that for `N#Cc1ccc(C(=O)N2CCC[C@@H]3[C@H]2CCN3c2ncnc3[nH]ccc23)cc1` [Example 29-29, 4-{[(3aR,7aR)-1-(7H-pyrrolo[2,3-d]pyrimidin-4-yl)octahydro-4H-pyrrolo[3,2-b]pyridin-4-yl]carbonyl}benzonitrile], 7.00 to 8.00.
Same read-out and setting: the result for `O=C(OCc1ccccc1)N1CCCC2C1CCN2c1ccnc2[nH]ccc12` [Example 30, (3aS,7aS and 3aR,7aR) benzyl 1-(1H-pyrrolo[2,3-b]pyridine-4-yl)octahydro-4H-pyrrolo[3,2-b]pyridine-4-carboxylate] reads 6.00 to 7.00; that for `CN(C)CCN(C)C(=O)c1ccc(COC(=O)N2CCC[C@@H]3[C@H]2CCN3c2ncnc3[nH]ccc23)cc1` [Example 7-5, 4-{[2-(dimethylamino)ethyl](methyl)carbamoyl}benzyl (3aR,7aR)-1-(7H-pyrrolo[2,3-d]pyrimidin-4-yl)octahydro-4H-pyrrolo[3,2-b]pyridine-4-carboxylate], 6.00 to 7.00; that for `O=C1CCCN1CCOC(=O)N1CCC[C@@H]2[C@H]1CCN2c1ncnc2[nH]ccc12` [Example 3-36, 2-(2-oxopyrrolidin-1-yl)ethyl (3aR,7aR)-1-(7H-pyrrolo[2,3-d]pyrimidin-4-yl)octahydro-4H-pyrrolo[3,2-b]pyridine-4-carboxylate], 6.00 to 7.00.
On the same count and under the same terms, the result for `N#Cc1cccc(C(=O)N2CCC[C@@H]3[C@H]2CCN3c2ncnc3[nH]ccc23)c1` [Example 29-31, 3-{[(3aR,7aR)-1-(7H-pyrrolo[2,3-d]pyrimidin-4-yl)octahydro-4H-pyrrolo[3,2-b]pyridin-4-yl]carbonyl}benzonitrile] reads 7.00 to 8.00; that for `O=C(c1ccccn1)N1CCC[C@@H]2[C@H]1CCN2c1ncnc2[nH]ccc12` [Example 29-11, 4-[(3aR,7aR)-4-(pyridin-2-ylcarbonyl)octahydro-1H-pyrrolo[3,2-b]pyridin-1-yl]-7H-pyrrolo[2,3-d]pyrimidine], 6.00 to 7.00.
Consider `O=C(OCC1CCCCC1)N1CCC[C@@H]2[C@H]1CCN2c1ncnc2[nH]ccc12` [Example 3-46, cyclohexylmethyl (3aR,7aR)-1-(7H-pyrrolo[2,3-d]pyrimidin-4-yl)octahydro-4H-pyrrolo[3,2-b]pyridine-4-carboxylate], for which the pIC50 was 7.00 to 8.00.
Still for that read-out and setting: then `O=C(OCc1ccc(CO)cc1)N1CCC[C@@H]2[C@H]1CCN2c1ncnc2[nH]ccc12` [Example 10, 4-(hydroxymethyl)benzyl (3aR,7aR)-1-(7H-pyrrolo[2,3-d]pyrimidin-4-yl)octahydro-4H-pyrrolo[3,2-b]pyridine-4-carboxylate], with 6.00 to 7.00.
On the same count and under the same terms, then `O=C(C(O)c1ccccc1)N1CCC[C@@H]2[C@H]1CCN2c1ncnc2[nH]ccc12` (stereo partly drawn) [Example 29-46, 2-oxo-1-phenyl-2-[(3aR,7aR)-1-(7H-pyrrolo[2,3-d]pyrimidin-4-yl)octahydro-4H-pyrrolo[3,2-b]pyridin-4-yl]ethanol], with 7.00 to 8.00; and `CN1CCC(COC(=O)N2CCC[C@@H]3[C@H]2CCN3c2ncnc3[nH]ccc23)CC1` [Example 3-42, (1-methylpiperidin-4-yl)methyl (3 aR,7 aR)-1-(7H-pyrrolo[2,3-d]pyrimidin-4-yl)octahydro-4H-pyrrolo[3,2-b]pyridine-4-carboxylate], with 6.00 to 7.00.
On the same count and under the same terms, the result for `COC(=O)c1ccc(COC(=O)N2CCC[C@H]3[C@@H]2CCN3c2ncnc3[nH]ccc23)cc1` [Example 5, 4-(methoxycarbonyl)benzyl (3aS,7aS)-1-(7H-pyrrolo[2,3-d]pyrimidin-4-yl)octahydro-4H pyrrolo[3,2-b]pyridine-4-carboxylate] reads 6.00 to 7.00; that for `O=C(c1ccccc1)N1CCC[C@@H]2[C@H]1CCN2c1ncnc2[nH]ccc12` [Example 29-34, 4-[(3aR,7aR)-4-(phenylcarbonyl)octahydro-1H-pyrrolo[3,2-b]pryidin-1-yl]-7H-pyrrolo[2,3-d]pyrimidine], 7.00 to 8.00; that for `O=C(OCCCc1ccccc1)N1CCC[C@@H]2[C@H]1CCN2c1ncnc2[nH]ccc12` [Example 3-47, 3-phenylpropyl (3aR,7aR)-1-(7H-pyrrolo[2,3-d]pyrimidin-4-yl)octahydro-4H-pyrrolo[3,2-b]pyridine-4-carboxylate], 8.00 to 9.00.
With `Cc1cccc(COC(=O)N2CCCC3C2CCN3c2ncnc3[nH]ccc23)c1` (centres unmarked) [Example 3-16, 3-methylbenzyl 1-(7H-pyrrolo[2,3-d]pyrimidin-4-yl)octahydro-4H-pyrrolo[3,2-b]-pyridine-4-carboxylate], the pIC50 is 7.00 to 8.00.
The same measure, in the same setting: the result for `O=C(c1cc2ccccn2c1)N1CCC[C@@H]2[C@H]1CCN2c1ncnc2[nH]ccc12` [Example 29-52, 4-[(3aR,7aR)-4-(indolizin-2-ylcarbonyl)octahydro-1H-pyrrolo[3,2-b]pyridin-1-yl]-7H-pyrrolo[2,3-d]pyrimidine] reads 6.00 to 7.00; that for `CC1CCN(Cc2ccccc2)C2CCN(c3ncnc4[nH]ccc34)C12` [Example 21, (3aS,7S,7aS and 3aR,7R,7aR) 4-(4-benzyl-7-methyloctahydro-1H-pyrrolo[3,2-b]pyridin-1-yl)-7H-pyrrolo[2,3-d]pyrimidine], 7.00 to 8.00; that for `O=C(OCC1CC1)N1CCC[C@@H]2[C@H]1CCN2c1ncnc2[nH]ccc12` [Example 3-31, cyclopropylmethyl (3aR,7aR)-1-(7H-pyrrolo[2,3-d]pyrimidin-4-yl)octahydro-4H-pyrrolo[3,2-b]pyridine-4-carboxylate], 7.00 to 8.00.
Same read-out and setting: the result for `O=C(OCc1ccccn1)N1CCCC2C1CCN2c1ncnc2[nH]ccc12` (centres unmarked) [Example 3-12, pyridin-2-ylmethyl 1-(7H-pyrrolo[2,3-d]pyrimidin-4-yl)octahydro-4H-pyrrolo[3,2-b]-pyridine-4-carboxylate] reads 7.00 to 8.00.
The same measure, in the same setting: then `O=C(OCCCc1ccccc1)N1CCCC2C1CCN2c1ncnc2[nH]ccc12` (centres unmarked) [Example 3-7, 3-phenylpropyl 1-(7H-pyrrolo[2,3-d]pyrimidin-4-yl)octahydro-4H-pyrrolo[3,2-b]-pyridine-4-carboxylate], with 7.00 to 8.00; and `COC(=O)c1ccc(CCC(=O)N2CCC[C@@H]3[C@H]2CCN3c2ncnc3[nH]ccc23)cc1` [Example 26, methyl 4-{3-oxo-3-[(3aR,7aR)-1-(7H-pyrrolo[2,3-d]pyrimidin-4-yl)octahydro-4H-pyrrolo[3,2-b]pyridine-4-yl]propyl}benzoate], with 7.00 to 8.00; and `O=S(=O)(c1ccccc1)N1CCC[C@@H]2[C@H]1CCN2c1ncnc2[nH]ccc12` (single isomer, unassigned) [Example 32-6], with 7.00 to 8.00.
`O=C(OCCN1CCS(=O)(=O)CC1)N1CCC[C@@H]2[C@H]1CCN2c1ncnc2[nH]ccc12` [Example 3-27, 2-(1,1-dioxidothiomorpholin-4-yl)ethyl (3 aR,7 aR)-1-(7H-pyrrolo[2,3-d]pyrimidin-4-yl)octahydro-4H-pyrrolo[3,2-b]pyridine-4-carboxylate]: the pIC50 was 6.00 to 7.00.
Still for that read-out and setting: the result for `O=C(OCCc1cc(F)cc(F)c1)N1CCC[C@@H]2[C@H]1CCN2c1ncnc2[nH]ccc12` [Example 3-44, 2-(3,5-difluorophenyl)ethyl (3aR,7aR)-1-(7H-pyrrolo[2,3-d]pyrimidin-4-yl)octahydro-4H-pyrrolo[3,2-b]pyridine-4-carboxylate] reads 7.00 to 8.00.

Staying with this experiment, now noted: Jak1 activity, IC50 class, recombinant GST-tagged catalytic domain.
On to `O=C(c1cc2ccccc2[nH]1)N1CCC[C@@H]2[C@H]1CCN2c1ncnc2[nH]ccc12` [Example 29-19, 4-[(3aR,7aR)-4-(1H-indol-2-ylcarbonyl)octahydro-1H-pyrrolo[3,2-b]pyridin-1-yl]-7H-pyrrolo[2,3-d]pyrimidine], for which the pIC50 is 6.00 to 7.00.
